Reference: PMC5218480 (PLoS ONE, 2017)

Tested on: MV-4-11 cells
Assay: Gene expression microarray analysis (Affymetrix PrimeView) and GSEA
Type: cell-based, human
Set-up: RFU PODN (11730768_x_at) / Fold change /veh PODN (11730768_x_at) / RFU LINC00158 (11744669_a_at) / Fold change /veh LINC00158 (11744669_a_at) / RFU DUSP10 (11751237_a_at) / Fold change /veh DUSP10 (11751237_a_at) / RFU ID3 (11757404_x_at) / Fold change /veh ID3 (11757404_x_at) / RFU PLEKHG5 (11737974_s_at) / Fold change /veh PLEKHG5 (11737974_s_at) / RFU LRRC4B (11730491_at) / Fold change /veh LRRC4B (11730491_at) / RFU GIMAP4 (11747438_a_at) / Fold change /veh GIMAP4 (11747438_a_at) / RFU KRT8 (11758183_x_at) / Fold change /veh KRT8 (11758183_x_at) / RFU CNN1 (11734310_a_at) / Fold change /veh CNN1 (11734310_a_at) / RFU VPS37D (11726825_at) / Fold change /veh VPS37D (11726825_at) / RFU C10orf10 (11716522_x_at) / Fold change /veh C10orf10 (11716522_x_at) / RFU KIR2DL2 /// KIR2DL4 /// KIR2DL5A /// KIR2DL5B /// KIR2DS1 /// KIR2DS2 /// KIR2DS3 /// KIR2DS4 /// KIR3DL3 /// KIR3DL3 /// KIR3DS1 (11738374_at) / Fold change /veh KIR2DL2 /// KIR2DL4 /// KIR2DL5A /// KIR2DL5B /// KIR2DS1 /// KIR2DS2 /// KIR2DS3 /// KIR2DS4 /// KIR3DL3 /// KIR3DL3 /// KIR3DS1 (11738374_at) / RFU C1QL1 (11718748_at) / Fold change /veh C1QL1 (11718748_at) / RFU TMPRSS4 (11747572_a_at) / Fold change /veh TMPRSS4 (11747572_a_at) / RFU HAMP (11756126_x_at) / Fold change /veh HAMP (11756126_x_at) / RFU RNFT2 (11725882_a_at) / Fold change /veh RNFT2 (11725882_a_at) / RFU NR4A2 (11747474_a_at) / Fold change /veh NR4A2 (11747474_a_at) / RFU ABCC12 (11746883_a_at) / Fold change /veh ABCC12 (11746883_a_at) / RFU TMEM136 (11760407_x_at) / Fold change /veh TMEM136 (11760407_x_at) / RFU CLDN22 /// WWC2 (11732394_at) / Fold change /veh CLDN22 /// WWC2 (11732394_at) / RFU HLA-DPB1 (11760878_x_at) / Fold change /veh HLA-DPB1 (11760878_x_at) / RFU SPINT1 (11716480_a_at) / Fold change /veh SPINT1 (11716480_a_at) / RFU GAP43 (11754022_s_at) / Fold change /veh GAP43 (11754022_s_at) / RFU A4GNT (11735810_at) / Fold change /veh A4GNT (11735810_at) / RFU PRB3 (11715151_x_at) / Fold change /veh PRB3 (11715151_x_at) / RFU TUBB4B (11761932_at) / Fold change /veh TUBB4B (11761932_at) / RFU CAPN14 (11732068_a_at) / Fold change /veh CAPN14 (11732068_a_at) / RFU TMCC2 (11721928_a_at) / Fold change /veh TMCC2 (11721928_a_at) / RFU IRGQ (11745062_a_at) / Fold change /veh IRGQ (11745062_a_at) / RFU FAM174B (11720279_a_at) / Fold change /veh FAM174B (11720279_a_at) / RFU TMPRSS4 (11748680_a_at) / Fold change /veh TMPRSS4 (11748680_a_at) / RFU FAM212B (11763350_a_at) / Fold change /veh FAM212B (11763350_a_at) / RFU PLEKHG5 (11743358_a_at) / Fold change /veh PLEKHG5 (11743358_a_at) / RFU ZSCAN30 (11745921_a_at) / Fold change /veh ZSCAN30 (11745921_a_at) / RFU CMKLR1 (11741424_a_at) / Fold change /veh CMKLR1 (11741424_a_at) / RFU LOC101060620 /// MAPK8IP1 (11723275_at) / Fold change /veh LOC101060620 /// MAPK8IP1 (11723275_at) / RFU SPTSSB (11747773_x_at) / Fold change /veh SPTSSB (11747773_x_at) / RFU PRSS12 (11739890_at) / Fold change /veh PRSS12 (11739890_at) / RFU BIN1 (11741810_x_at) / Fold change /veh BIN1 (11741810_x_at) / RFU WNT11 (11732464_a_at) / Fold change /veh WNT11 (11732464_a_at) / RFU C10orf10 (11716521_a_at) / Fold change /veh C10orf10 (11716521_a_at) / RFU C5orf56 (11738089_at) / Fold change /veh C5orf56 (11738089_at) / RFU CYB561 (11721691_x_at) / Fold change /veh CYB561 (11721691_x_at) / RFU ANKRD19P (11752326_a_at) / Fold change /veh ANKRD19P (11752326_a_at) / RFU OR2T12 /// OR2T33 /// OR2T8 (11738714_s_at) / Fold change /veh OR2T12 /// OR2T33 /// OR2T8 (11738714_s_at) / RFU VCAN (11748164_a_at) / Fold change /veh VCAN (11748164_a_at) / RFU JSRP1 (11732532_at) / Fold change /veh JSRP1 (11732532_at) / RFU KRTAP10-11 (11738290_x_at) / Fold change /veh KRTAP10-11 (11738290_x_at) / RFU MYO3A (11730013_a_at) / Fold change /veh MYO3A (11730013_a_at) / RFU EBF3 (11725865_a_at) / Fold change /veh EBF3 (11725865_a_at) / RFU CAMK2N1 (11719241_x_at) / Fold change /veh CAMK2N1 (11719241_x_at) / RFU C5orf56 (11738088_a_at) / Fold change /veh C5orf56 (11738088_a_at) / RFU OLFML3 (11715873_a_at) / Fold change /veh OLFML3 (11715873_a_at) / RFU LOC100653217 /// NTM (11731650_a_at) / Fold change /veh LOC100653217 /// NTM (11731650_a_at) / RFU MAPK11 (11762145_a_at) / Fold change /veh MAPK11 (11762145_a_at) / RFU FIZ1 (11724087_x_at) / Fold change /veh FIZ1 (11724087_x_at) / RFU OASL (11726364_x_at) / Fold change /veh OASL (11726364_x_at) / RFU SOX15 (11748057_x_at) / Fold change /veh SOX15 (11748057_x_at) / RFU CD79A (11719716_a_at) / Fold change /veh CD79A (11719716_a_at) / RFU HIST1H1D (11736915_at) / Fold change /veh HIST1H1D (11736915_at) / RFU CASKIN2 (11723855_a_at) / Fold change /veh CASKIN2 (11723855_a_at) / RFU LOC730098 (11760151_x_at) / Fold change /veh LOC730098 (11760151_x_at) / RFU OR4N2 (11742367_at) / Fold change /veh OR4N2 (11742367_at) / RFU PRRT2 (11749266_a_at) / Fold change /veh PRRT2 (11749266_a_at) / RFU SNX32 (11753110_a_at) / Fold change /veh SNX32 (11753110_a_at) / RFU CDHR5 (11726645_a_at) / Fold change /veh CDHR5 (11726645_a_at) / RFU RCAN1 (11760418_a_at) / Fold change /veh RCAN1 (11760418_a_at) / RFU FAM167A (11723789_a_at) / Fold change /veh FAM167A (11723789_a_at) / RFU FAM26E (11764081_at) / Fold change /veh FAM26E (11764081_at) / RFU ISYNA1 (11749810_s_at) / Fold change /veh ISYNA1 (11749810_s_at) / RFU ACY1 (11761880_at) / Fold change /veh ACY1 (11761880_at) / RFU 11764098_at / Fold change /veh 11764098_at / RFU SAMD14 (11745864_x_at) / Fold change /veh SAMD14 (11745864_x_at) / RFU NPB (11741838_a_at) / Fold change /veh NPB (11741838_a_at) / RFU TMPRSS6 (11731388_a_at) / Fold change /veh TMPRSS6 (11731388_a_at) / RFU KRTAP10-2 (11738614_at) / Fold change /veh KRTAP10-2 (11738614_at) / RFU ARHGAP8 /// PRR5-ARHGAP8 (11727945_x_at) / Fold change /veh ARHGAP8 /// PRR5-ARHGAP8 (11727945_x_at) / RFU KRTAP5-7 /// NADSYN1 (11734609_at) / Fold change /veh KRTAP5-7 /// NADSYN1 (11734609_at) / RFU RASL12 (11751679_a_at) / Fold change /veh RASL12 (11751679_a_at) / RFU CDKN2B (11736163_a_at) / Fold change /veh CDKN2B (11736163_a_at) / RFU PRF1 (11729649_at) / Fold change /veh PRF1 (11729649_at) / RFU, ZNF638 /// ZNF638-IT1 / Fold change vs veh, ZNF638 /// ZNF638-IT1 / RFU, PANK3 / Fold change vs veh, PANK3 / RFU, SH3YL1 / Fold change vs veh, SH3YL1 / RFU, ZEB2 / Fold change vs veh, ZEB2 / RFU, NRIP1 / Fold change vs veh, NRIP1 / RFU, PTTG1IP / Fold change vs veh, PTTG1IP / RFU, CAPN2 / Fold change vs veh, CAPN2 / RFU, MED14 / Fold change vs veh, MED14 / RFU, SNORA58 / Fold change vs veh, SNORA58 / RFU, C1orf63 / Fold change vs veh, C1orf63 / RFU, LRRFIP1 / Fold change vs veh, LRRFIP1 / RFU, NDUFAF7 / Fold change vs veh, NDUFAF7 / RFU, SLC12A2 / Fold change vs veh, SLC12A2 / RFU, IBTK / Fold change vs veh, IBTK / RFU, ESF1 / Fold change vs veh, ESF1 / Fold change vs veh, TMEM50B / RFU, TAOK1 / Fold change vs veh, TAOK1 / RFU, ACBD3 / Fold change vs veh, ACBD3 / RFU, TMA16 / Fold change vs veh, TMA16 / RFU, RWDD3 / Fold change vs veh, RWDD3 / RFU, BCAT1 / Fold change vs veh, BCAT1 / RFU, EDEM3 / Fold change vs veh, EDEM3 / RFU, TMEM33 / Fold change vs veh, TMEM33 / RFU, WDR75 / Fold change vs veh, WDR75 / RFU, AHCTF1 / Fold change vs veh, AHCTF1 / RFU, TFRC / Fold change vs veh, TFRC / RFU, ZDHHC17 / Fold change vs veh, ZDHHC17 / RFU, NOM1 / Fold change vs veh, NOM1 / RFU, ARL8B / Fold change vs veh, ARL8B / RFU, ZBTB11 / Fold change vs veh, ZBTB11 / RFU, TAMM41 / Fold change vs veh, TAMM41 / RFU, KIAA1704 /// LOC100996395 / Fold change vs veh, KIAA1704 /// LOC100996395 / RFU, ING1 / Fold change vs veh, ING1 / RFU, TRMT61B / Fold change vs veh, TRMT61B / RFU, FUBP3 / Fold change vs veh, FUBP3 / RFU, TP53 / Fold change vs veh, TP53 / RFU, TNKS2 / Fold change vs veh, TNKS2 / RFU, ZFP14 / Fold change vs veh, ZFP14 / RFU, ACTR2 / Fold change vs veh, ACTR2 / RFU, PPP3R1 / Fold change vs veh, PPP3R1 / RFU, PIK3R1 / Fold change vs veh, PIK3R1 / RFU, HNRNPA1 / Fold change vs veh, HNRNPA1 / RFU, RNF170 / Fold change vs veh, RNF170 / RFU, ZNF28 / Fold change vs veh, ZNF28 / RFU, RNGTT / Fold change vs veh, RNGTT / RFU, OGT / Fold change vs veh, OGT / RFU, BRD1 / Fold change vs veh, BRD1 / RFU, MARS / Fold change vs veh, MARS / RFU, ZNF655 / Fold change vs veh, ZNF655 / RFU, FAHD1 / Fold change vs veh, FAHD1 / RFU, BDP1 / Fold change vs veh, BDP1 / RFU, LRRCC1 / Fold change vs veh, LRRCC1 / RFU, ARID1A / Fold change vs veh, ARID1A / RFU, ZNF146 / Fold change vs veh, ZNF146 / RFU, ZNF330 / Fold change vs veh, ZNF330 / RFU, GPN3 / Fold change vs veh, GPN3 / RFU, C9orf123 / Fold change vs veh, C9orf123 / RFU, N4BP2L2 / Fold change vs veh, N4BP2L2 / RFU, ARFIP1 / Fold change vs veh, ARFIP1 / RFU, FAM179B / Fold change vs veh, FAM179B / RFU, BCL10 / Fold change vs veh, BCL10 / RFU, UHRF1BP1L / Fold change vs veh, UHRF1BP1L / RFU, BET1 / Fold change vs veh, BET1 / RFU, CNOT2 / Fold change vs veh, CNOT2 / RFU, ZNF268 / Fold change vs veh, ZNF268 / Fold change vs veh, ZNF507 / RFU, DGCR2 / Fold change vs veh, DGCR2 / RFU, WDSUB1 / Fold change vs veh, WDSUB1 / Fold change vs veh, HSP90B1 /// MIR3652 / RFU, ADSS / Fold change vs veh, ADSS / RFU, GK / Fold change vs veh, GK / RFU, ZNF148 / Fold change vs veh, ZNF148 / RFU, TAF9 / Fold change vs veh, TAF9 / RFU, SLC1A5 / Fold change vs veh, SLC1A5 / RFU, SLMO2 / Fold change vs veh, SLMO2 / RFU, ABCC4 / Fold change vs veh, ABCC4 / RFU, LOC101060439 /// RAP1B / Fold change vs veh, LOC101060439 /// RAP1B / RFU, RFX7 / Fold change vs veh, RFX7 / RFU, GTPBP10 / Fold change vs veh, GTPBP10 / RFU, CNEP1R1 / Fold change vs veh, CNEP1R1 / RFU, BIVM-ERCC5 /// ERCC5 / Fold change vs veh, BIVM-ERCC5 /// ERCC5 / RFU, ILF3 / Fold change vs veh, ILF3 / RFU 11762660_at / Fold change /veh 11762660_at / RFU VCAN (11757783_s_at) / Fold change /veh VCAN (11757783_s_at) / RFU DDX43 (11728927_at) / Fold change /veh DDX43 (11728927_at) / RFU KRT8 (11758188_x_at) / Fold change /veh KRT8 (11758188_x_at) / RFU NKD1 (11759106_at) / Fold change /veh NKD1 (11759106_at) / RFU SRD5A1 (11742802_a_at) / Fold change /veh SRD5A1 (11742802_a_at) / RFU TPSAB1 /// TPSB2 (11721975_s_at) / Fold change /veh TPSAB1 /// TPSB2 (11721975_s_at) / RFU GSTM3 (11746129_a_at) / Fold change /veh GSTM3 (11746129_a_at) / RFU IL23R (11737362_x_at) / Fold change /veh IL23R (11737362_x_at) / RFU TMEM51 (11727254_a_at) / Fold change /veh TMEM51 (11727254_a_at) / RFU PIWIL2 (11732686_x_at) / Fold change /veh PIWIL2 (11732686_x_at) / RFU ORM1 (11744905_x_at) / Fold change /veh ORM1 (11744905_x_at) / RFU CCDC152 (11743942_at) / Fold change /veh CCDC152 (11743942_at) / RFU ECM1 (11717891_a_at) / Fold change /veh ECM1 (11717891_a_at) / RFU IL23R (11748794_a_at) / Fold change /veh IL23R (11748794_a_at) / RFU TNFAIP8L3 (11732012_x_at) / Fold change /veh TNFAIP8L3 (11732012_x_at) / RFU MBOAT4 (11741988_at) / Fold change /veh MBOAT4 (11741988_at) / RFU 11764193_at / Fold change /veh 11764193_at / RFU TMEM53 (11763286_at) / Fold change /veh TMEM53 (11763286_at) / RFU MAGEB2 (11727129_at) / Fold change /veh MAGEB2 (11727129_at) / RFU TMEM200A (11744735_a_at) / Fold change /veh TMEM200A (11744735_a_at) / RFU CCDC152 (11751479_a_at) / Fold change /veh CCDC152 (11751479_a_at) / RFU FAM211A (11726209_a_at) / Fold change /veh FAM211A (11726209_a_at) / RFU RGS16 (11746705_a_at) / Fold change /veh RGS16 (11746705_a_at) / RFU VCAN (11755009_s_at) / Fold change /veh VCAN (11755009_s_at) / RFU RHOB (11743442_s_at) / Fold change /veh RHOB (11743442_s_at) / RFU RGS16 (11720943_a_at) / Fold change /veh RGS16 (11720943_a_at) / RFU RGS16 (11720944_at) / Fold change /veh RGS16 (11720944_at) / RFU, VPS4B / Fold change vs veh, VPS4B / RFU, CREB1 / Fold change vs veh, CREB1 / RFU, DNAJC13 / Fold change vs veh, DNAJC13 / RFU, GNAQ / Fold change vs veh, GNAQ / RFU, CDK5R1 / Fold change vs veh, CDK5R1 / RFU, ZRANB3 / Fold change vs veh, ZRANB3 / RFU, CUL4A / Fold change vs veh, CUL4A / RFU, CCNY / Fold change vs veh, CCNY / RFU, UFL1 / Fold change vs veh, UFL1 / RFU, COG3 / Fold change vs veh, COG3 / RFU, DIAPH2 / Fold change vs veh, DIAPH2 / RFU, SKA2 / Fold change vs veh, SKA2 / RFU, AFF3 / Fold change vs veh, AFF3 / RFU, LMF1 / Fold change vs veh, LMF1 / RFU, IPO11 / Fold change vs veh, IPO11 / RFU, DFFB / Fold change vs veh, DFFB / RFU, FOXP1 / Fold change vs veh, FOXP1 / RFU, CARD8 / Fold change vs veh, CARD8 / RFU, STRN3 / Fold change vs veh, STRN3 / RFU, ADK / Fold change vs veh, ADK / RFU, RASSF2 / Fold change vs veh, RASSF2 / RFU, WIPF1 / Fold change vs veh, WIPF1 / RFU, LARP1B / Fold change vs veh, LARP1B / RFU, RASA1 / Fold change vs veh, RASA1 / RFU, RB1 / Fold change vs veh, RB1 / RFU, PPFIA1 / Fold change vs veh, PPFIA1 / RFU, MAT2A / Fold change vs veh, MAT2A / RFU, CCT5 / Fold change vs veh, CCT5 / RFU, WDR92 / Fold change vs veh, WDR92 / RFU, CUX1 / Fold change vs veh, CUX1 / RFU, TTC7A / Fold change vs veh, TTC7A / RFU, TMEM135 / Fold change vs veh, TMEM135 / RFU, DEPTOR / Fold change vs veh, DEPTOR / RFU, CPM / Fold change vs veh, CPM / RFU, DNAJB6 / Fold change vs veh, DNAJB6 / RFU, CACNA2D3 / Fold change vs veh, CACNA2D3 / RFU, DTX4 / Fold change vs veh, DTX4 / RFU, TFCP2 / Fold change vs veh, TFCP2 / RFU, GMCL1 /// GMCL1P1 / Fold change vs veh, GMCL1 /// GMCL1P1 / RFU, AEBP2 / Fold change vs veh, AEBP2 / RFU, SNHG1 /// SNORD22 /// SNORD25 /// SNORD26 /// SNORD27 /// SNORD28 /// SNORD29 /// SNORD31 / Fold change vs veh, SNHG1 /// SNORD22 /// SNORD25 /// SNORD26 /// SNORD27 /// SNORD28 /// SNORD29 /// SNORD31 / Fold change (Aza/veh), C12orf56 (ProbeSet 11735607_a_at) / Fold change (ACY-1035/veh), C12orf56 (ProbeSet 11735607_a_at) / Fold change (Aza/veh), FGFR1OP (ProbeSet 11751329_s_at) / Fold change (ACY-1035/veh), FGFR1OP (ProbeSet 11751329_s_at) / Fold change (Aza/veh), VPS36 (ProbeSet 11739960_a_at) / Fold change (ACY-1035/veh), VPS36 (ProbeSet 11739960_a_at) / RFU SYPL1 (11715823_x_at) / Fold change /veh SYPL1 (11715823_x_at) / RFU IGFBP7 (11715501_s_at) / Fold change /veh IGFBP7 (11715501_s_at) / RFU REEP3 (11722064_at) / Fold change /veh REEP3 (11722064_at) / RFU IGLL1 (11728026_x_at) / Fold change /veh IGLL1 (11728026_x_at): dose or concentration left out as unconfirmed
Settings: MV-4-11 cells, 48 hours

## Nc1ccc(-c2cccs2)cc1NC(=O)c1ccc2c(c1)cc(C1CC1)n2CCN1CCOCC1 [ACY-1035]
  RFU TNFAIP8L3 (11732012_x_at): 8.37 RFU
